Experimental data taken from patent US20250195474A1, “Piezo Inhibition for Wound Healing” (priority 2022, published 2025).
No end group written: not given here.

Columns and labels:
human adipocytes = assay: Calcium imaging of hydrogel-bound adipocytes (Fluo-4 AM); format: cell-based; conditions: stretched human adipocytes
Source text: Calcium imaging was used to determine in vitro Ca^2+ flow in hydrogel-bound adipocytes with or without mechanical strain and with or without Piezo1 inhibitor treatment. A Fluo-4, AM cell permeant kit (ThermoFisher, Cat: F-14201) was used per the manufacturer's instructions. […] Imagej was used for image quantification.

wounds = assay: Visium spatial transcriptomic analysis of wounds; format: in vivo, mouse
Protocol: (§1) Wound specimens were rapidly harvested and flash frozen in OCT. Using the Visium Tissue Optimization Slide and Reagent Kit, permeabilization time was optimized at a thickness at 10 μm per section and 37 minutes for mouse tissue. Following cryo-sectioning at −20 degrees onto gene expression slides the expression slide and reagent kit was used to produce sequencing libraries. The libraries were then sequences using NextSeq (Illumina). Following demultiplication the raw FASTQ files and histology images were processed by sample with the Space Ranger software for genome alignment. The raw spaceranger output files for each sample was then read into a Seurat class object in R using Seurat's Load10× function. Data was normalized using the SCT transform with default parameters. To ascertain the integration of our scRNAseq and Visium spatial analysis we employed the FindTransferAnchors( ) function from Seurat, which allowed the alignment of data using the two datasets. This cross-platform linkage is performed serially in an unconstrained and constrained fashion.

existing scars [1] = assay: Treatment of existing scars during remodeling (scar rescue); format: in vivo, mouse
Source text: While wound re-epithelialization is complete relatively quickly (around 2 weeks), wounds continue to heal beneath the surface for months to years in a process known as scar remodeling. (Foster et al., 2021; Gurtner et al., 2008) Remodeling is the longest and least well understood phase of wound repair but is likely critical to ultimate outcomes. We postulated that ADFs could continue to play a role in scarring during the remodeling process; if this were the case, we wondered whether ADF activity could be targeted during wound remodeling, via P1i in existing, actively remodeling scars, to ultimately reduce scarring and drive regeneration (FIG. 6A,C). Thus, we administered P1i to existing scars at POD 30 (early remodeling period), POD 75 (mid-remodeling), and POD 120 (late remodeling), then harvested tissue one month later at POD 60, POD 105, and […] respectively (FIG. 6A, C).

existing scars [2] = assay: Visium spatial transcriptomic analysis of treated existing scars; format: in vivo, mouse
Protocol: as §1
To further analyze the spatial gene expression following scar rescue, the Visium platform was applied to scars treated with P1i or PBS at POD 30, 75, and 120 (FIG. 9A). Similar to analysis of acute wound healing, the epidermal, dermal, and hypodermal layers were easily elucidated from the spatial transcriptomic analysis in scars at POD 60 (FIG. 9B). Furthermore, the expected cell types including fibroblasts, immune, epithelial, and adipocytes were identified by spatial expression of representative genes (FIG. 36A).

TRPC1 = TRPC1 (Homo sapiens, UniProt P48995); conditions: cited from earlier work
TRPC1, sequence (P48995 whole entry, species assumed): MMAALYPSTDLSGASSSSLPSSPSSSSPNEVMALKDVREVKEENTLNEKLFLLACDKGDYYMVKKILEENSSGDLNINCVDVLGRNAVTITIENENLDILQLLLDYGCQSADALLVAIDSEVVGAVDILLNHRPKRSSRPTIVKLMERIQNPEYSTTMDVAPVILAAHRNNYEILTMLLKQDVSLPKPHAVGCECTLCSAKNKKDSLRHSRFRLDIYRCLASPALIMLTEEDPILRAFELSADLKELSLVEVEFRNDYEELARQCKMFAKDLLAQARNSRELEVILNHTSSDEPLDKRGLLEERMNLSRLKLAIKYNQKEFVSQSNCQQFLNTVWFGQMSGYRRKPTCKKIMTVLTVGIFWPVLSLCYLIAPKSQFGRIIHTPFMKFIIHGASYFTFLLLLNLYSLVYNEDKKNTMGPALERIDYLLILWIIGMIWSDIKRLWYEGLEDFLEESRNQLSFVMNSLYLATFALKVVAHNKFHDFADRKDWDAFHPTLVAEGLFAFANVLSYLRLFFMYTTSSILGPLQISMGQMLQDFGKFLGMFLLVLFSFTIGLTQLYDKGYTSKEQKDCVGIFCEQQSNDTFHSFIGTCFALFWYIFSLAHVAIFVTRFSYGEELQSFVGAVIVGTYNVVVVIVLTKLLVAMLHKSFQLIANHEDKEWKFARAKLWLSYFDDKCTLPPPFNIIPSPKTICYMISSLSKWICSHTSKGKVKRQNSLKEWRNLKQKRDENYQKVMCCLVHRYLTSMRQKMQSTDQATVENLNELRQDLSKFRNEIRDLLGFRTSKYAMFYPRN

TRPC6 = target: T1, TRPC6 (Homo sapiens, UniProt Q9Y210); conditions: cited from earlier work
T1 sequence (Q9Y210 1-931): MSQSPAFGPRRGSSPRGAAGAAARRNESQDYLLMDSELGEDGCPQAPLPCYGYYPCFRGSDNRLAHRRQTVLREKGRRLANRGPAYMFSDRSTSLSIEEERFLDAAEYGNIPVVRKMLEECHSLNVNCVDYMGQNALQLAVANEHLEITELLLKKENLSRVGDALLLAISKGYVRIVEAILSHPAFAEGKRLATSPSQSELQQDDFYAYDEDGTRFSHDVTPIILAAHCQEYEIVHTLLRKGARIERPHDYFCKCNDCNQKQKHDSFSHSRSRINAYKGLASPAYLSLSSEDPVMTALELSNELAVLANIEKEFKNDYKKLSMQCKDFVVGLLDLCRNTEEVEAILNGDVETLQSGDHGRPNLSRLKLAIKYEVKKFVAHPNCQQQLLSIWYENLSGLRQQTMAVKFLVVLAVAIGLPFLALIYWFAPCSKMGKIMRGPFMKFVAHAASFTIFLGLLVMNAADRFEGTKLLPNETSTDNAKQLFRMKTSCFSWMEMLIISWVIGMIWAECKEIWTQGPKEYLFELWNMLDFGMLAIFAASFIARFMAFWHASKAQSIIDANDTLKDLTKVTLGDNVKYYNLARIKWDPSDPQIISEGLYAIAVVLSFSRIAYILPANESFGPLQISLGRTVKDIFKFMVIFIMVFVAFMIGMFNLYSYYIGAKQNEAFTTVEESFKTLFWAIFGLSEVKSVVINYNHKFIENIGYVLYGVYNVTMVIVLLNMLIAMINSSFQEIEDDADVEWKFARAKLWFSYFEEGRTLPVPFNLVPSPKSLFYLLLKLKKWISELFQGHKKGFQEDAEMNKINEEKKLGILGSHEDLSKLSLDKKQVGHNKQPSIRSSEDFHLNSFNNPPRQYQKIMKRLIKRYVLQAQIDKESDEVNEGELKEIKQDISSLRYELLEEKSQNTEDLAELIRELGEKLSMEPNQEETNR

mouse adipocytes = assay: Mouse adipocyte-populated collagen I hydrogels with or without mechanical stretch; conditions: 10% equibiaxial strain, 7 days; GsMTx4 500 nM, D-GsMTx4 500 nM, PF573228 10 uM, Verteporfin 300 nM
[3] = treated at POD 30, 75 or 120, harvested one month later

## GsMTx4 (GCLEFWWKCNPNDDKCCRPKLKCSKLFKLCNFSF; ends and bridges not checked; cysteine pairing not given here; UniProt Q7YT39 47-80, looked up) [P1i]
Human adipocytes
  calcium staining with stretching: decreased
wounds; POD 14
  differential interaction maps (Visium): strong interactions between adipocytes and fibroblasts
  fibroblast scRNA-seq cluster 0 (mechanically sensitive) spatial enrichment: highly enriched in PBS-treated POD 14 wounds compared to P1i or P2i treated wounds
  fibroblast scRNA-seq cluster 5 (mechanically naive) spatial presence: observed
  spatial expression of Piezo1, Piezo2, Ptk2 and Yap1: appeared mostly at the basal region
  spatially variable features (gene expression): high expression of markers associated with the epidermis including Krt1 and Krt14
wounds; POD 14, vs PBS
  adipocyte and epithelial cells in the spatial environment: enriched
Existing scars [1]; POD 105 and 120 vs POD 60
  organization of hair follicles: less organized than those at POD 60
Existing scars [1]; late treatment of existing scars
  ADFs in late treated wounds: significantly reduced
Existing scars [1]; [3]
  ECM architecture in existing scars: full recovery of unwounded-like ECM architecture
  hair follicles in existing scars: return of hair follicles
  wound regeneration in existing scars: near-complete wound regeneration
Existing scars [2]; POD 60, 105 and 150, vs PBS
  spatially identified adipocytes: greater in number
Existing scars [2]; existing scars
  differential interaction maps (Visium): larger number of interactions between adipocytes and epithelial cells
  differentially expressed genes during scar rescue: high expression of genes associated with the epidermis
Existing scars [2]; existing scars, all timepoints
  spatial expression of Piezo1, Piezo2, Yap1 and Ptk2: observed mostly at the basal aspects of the wounds
TRPC1
  block of TRPC1: blocks
TRPC6
  block of TRPC6: blocks
Mouse adipocytes
  stretch-induced phenotypic switch (losing adiponectin, expressing Col1): abrogated
